“Also recorded” adds a separate entry of the source.
What was measured:
NanoLuc-GSK3α = NanoLuc-GSK3α (Homo sapiens (Human), UniProt P49840); assay: NanoBRET residence time, GSK3α; type: cell-based; conditions: inhibitor at 10× IC50, BRET every 5 min for 3 hours
[1] = system: tau phosphorylation at pThr231; assay: Rat developmental model of tau phosphorylation; type: in vivo, Sprague Dawley rats; conditions: P10 rats
Description: Sprague Dawley rats were bred in-house and litters were injected with compound, I.P. at post-natal day 10. Rats were then euthanized at indicated times following drug administration. For tissue collection, animals were euthanized via decapitation, brains were quickly removed, and bisected sagitally. The right cortex, was isolated, placed into 2 mL microtubes along with a single 5 mm stainless steel bead and the left cortex were placed into 2 mL Lysing Matrix A tubes (MP Biomedicals, Santa Ana, CA), Both tubes were immediately snap frozen in liquid nitrogen.
To determine whether a selective GSK3α inhibitor could also lower tau phosphorylation in a more physiological setting, 837646 was administered to rats at post-natal day 10. […] In the current experiment, 837646 was administered at 60, 20 and 10 mg/kg in P10 rats. The animals were sacrificed at several time points following treatment.

GSK3α = GSK3α (Rattus norvegicus (Rat), UniProt P18265); assay: In vivo target engagement assay (chemoproteomics, kinobeads), GSK3α; conditions: P10 rat cortex
GSK3α, sequence (P18265 whole entry): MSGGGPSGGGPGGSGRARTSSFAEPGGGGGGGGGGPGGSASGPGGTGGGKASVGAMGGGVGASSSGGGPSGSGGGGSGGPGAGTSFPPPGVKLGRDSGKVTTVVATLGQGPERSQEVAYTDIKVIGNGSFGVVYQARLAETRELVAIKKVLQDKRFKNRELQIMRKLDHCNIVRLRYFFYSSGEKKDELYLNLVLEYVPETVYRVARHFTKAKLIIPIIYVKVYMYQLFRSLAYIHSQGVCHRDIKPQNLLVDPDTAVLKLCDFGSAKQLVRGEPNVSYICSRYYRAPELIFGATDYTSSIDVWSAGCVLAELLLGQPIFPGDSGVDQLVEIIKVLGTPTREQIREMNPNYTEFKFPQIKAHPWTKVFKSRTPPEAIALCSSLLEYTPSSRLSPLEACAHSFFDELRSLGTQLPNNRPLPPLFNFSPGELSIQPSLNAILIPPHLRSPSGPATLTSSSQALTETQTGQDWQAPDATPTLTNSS
Description: (§1) Chemoproteomics competition was used to evaluate inhibitor selectivity and target engagement in vivo. Frozen cortexes were prepared for homogenization with 1.2 mL of Lysis Buffer (50 mM Tris-HCl, 0.8% NP-40 ((octylphenoxy poly(ethyleneoxy) ethanol)), 5% glycerol, 150 mM NaCl, 1.5 mM MgCl2, 25 mM NaF, 1 mM sodium vanadate, 1 mM DTT, pH 7.5 and supplemented with protease inhibitors). Tissues were homogenized in FastPrep-24 5G instrument at maximum oscillations for 20 seconds. The resulting brain homogenate was clarified by centrifugation for 1 h at 145 000 g, 4° C. The protein concentration of the supernatant was determined by BCA assay and each sample was diluted to final concentration of 5 mg/mL with lysis buffer. […] The dry peptide mixture was reconstituted in 15 μL of 0.1% trifluoro acetic acid and analyzed on ID nanoLC-MS/MS platform using a standardized 140 min method. Peptides were separated on an Easy-Spray column (75 μm×50 cm, PepMAP C18, 1.9 μm) at 250 nL/min, analyzed on a QExactive HF mass spectrometer at data dependent acquisition (DDA) mode with MS1 at 60,000 and MS2 at 15,000 resolution, respectively. […]
To measure direct target engagement of the compound for both GSK3α and GSK3β competitive chemoproteomics methodology was used. […] Enriched proteins were analyzed by liquid chromatography coupled with tandem mass spectrometry. […]

[2] = system: 251 unique detected kinases in rat brain; assay: In vivo kinome selectivity (chemoproteomics, kinobeads); conditions: 60 mg/kg
Description: as §1
To investigate whether the effects of 837646 on tau phosphorylation were solely the result of GSK3 inhibition, additional kinases detected by mass spectrometry for compound engagement in the same brain lysates were profiled. […]

[3] = system: β-catenin nuclear translocation in SH-SY5Y cells; assay: β-catenin translocation assay; type: cell-based; conditions: HEK-huTau GSK3α vs SH-SY5Y β-catenin
Description: SH-SY5Y cells were seeded into a 96-well CellCarrier Ultra (Perkin Elmer) plate at a density of 1×10^5 cells/ml in complete DMEM. Sixteen hours following plating, media was changed to DMEM with 2% serum, and compound was added with a D300e Digital Dispenser (Tecan) for an incubation time of six hours. After compound incubation, media was removed, and cells were fixed with 4% PFA for 10 minutes at room temperature. Each well was washed three times with PBS-T and then blocked with buffer (1×PBS with 5% Normal Goat Serum and 0.3% Triton X-100) for 30 minutes at room temperature. β-Catenin primary antibody (Cell Signaling #8480) was added at 1:500 dilution in blocking buffer and the cells were allowed to incubate in primary overnight at 4° C. The following day, primary antibody was removed, each well was washed three times with PBS-T, and secondary antibody (1:2000 anti-rabbit AlexaFluor Plus 488 and 1:10,000 Hoechst 33342) was added and allowed to incubate for 60 minutes at room temperature protected from light. After one-hour, secondary antibody was removed and wells were washed four times with PBS-T before imaging on the Opera Phenix. Sixteen fields per well were imaged with a 20× water lens.
Images were quantified in the Columbus Image Data Storage and Analysis software. Cells were identified using the Hoechst nuclear stain to identify individual nuclei. Intensity of the nuclear stain was also used to determine cell viability (Viable cells <30% CV of Hoechst Intensity)

NanoLuc-GSK3α, sequence (P49840 whole entry): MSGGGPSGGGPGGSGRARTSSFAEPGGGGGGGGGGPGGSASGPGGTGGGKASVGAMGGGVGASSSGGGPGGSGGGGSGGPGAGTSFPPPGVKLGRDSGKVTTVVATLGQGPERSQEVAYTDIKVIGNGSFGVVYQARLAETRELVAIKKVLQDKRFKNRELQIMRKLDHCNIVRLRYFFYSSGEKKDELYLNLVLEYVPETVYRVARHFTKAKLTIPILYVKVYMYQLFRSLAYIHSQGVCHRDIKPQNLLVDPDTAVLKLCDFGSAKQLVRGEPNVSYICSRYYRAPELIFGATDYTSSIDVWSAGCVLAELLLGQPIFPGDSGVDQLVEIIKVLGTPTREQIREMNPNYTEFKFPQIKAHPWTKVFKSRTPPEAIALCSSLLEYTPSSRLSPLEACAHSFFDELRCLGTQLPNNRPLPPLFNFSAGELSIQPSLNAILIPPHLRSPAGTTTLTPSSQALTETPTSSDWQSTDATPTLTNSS

CCC1(c2cccc(C(F)(F)F)c2)C2=C(Nc3n[nH]cc31)C(F)C(C)(C)CC2=O (single isomer, unassigned) [Compound 837646, 4-ethyl-8-fluoro-7,7-dimethyl-4-(3-(trifluoromethyl)phenyl)-2,4,6,7,8,9-hexahydro-5H-pyrazolo[3,4-b]quinolin-5-one]
residence time at GSK3α (NanoLuc-GSK3α): no difference in the residence time
tau phosphorylation at pThr231 vs vehicle, 24 hr ([1]; I.P., 20 or 60 mg/kg, 24 hr): significantly different from the vehicle group
tau phosphorylation at pThr231 vs vehicle, 3 hours ([1]; I.P., 60, 20 and 10 mg/kg, 3 hours after administration): significant lowering of tau phosphorylation at pThr231; also recorded: reduction in tau phosphorylation at Thr231 at all doses tested
target engagement at GSK3α, 24 hr (GSK3α; 24 hr, both 60 mg/kg and 20 mg/kg): ~50%
target engagement for GSK3α, 3 hours (GSK3α; three hours after dosing (Cmax, 60 mg/kg)): over 90%
number of off-target kinases with target engagement greater than 70% ([2]; Cmax, of 251 unique kinases, apart from GSK3): 6
number of kinases with target engagement greater than 70% (including GSK3α) ([2]; out of 251 unique detected kinases): 7
window between potency on tau phosphorylation by GSK3α and concentrations affecting β-catenin stabilization [3]: > 20 fold

From patent US20250313563A1, “GLYCOGEN SYNTHASE KINASE 3 INHIBITORS AND USES THEREOF” (The Broad Institute, Inc., priority 2022, published 2025)
